# Reference: patent US8178574B2, “Tosylate salt of trans-N-isobutyl-3-fluoro-3-[3-fluoro-4-(pyrrolidin-1-yl-methyl)-phenyl] cyclobut anecarboxamide” (Pfizer Inc., priority 2007, dated 2012)
# Counter-ions that a name gives are not always drawn.
# Columns and labels:
# [1] = Aqueous solubility of the crystalline compound (RP-HPLC after temperature cycling); type: physicochemical; settings: for solubility thermodynamic at 25 h: aqueous buffer
# Experimental: The following information was determined in regard of aqueous solubility. […] These values represent the solubility of the crystalline compound determined via RP-HPLC analysis after subjecting the drug media mixture to a temperature cycling program (40° C. for 8 hours, 15° C. for 5 hours, and 25° C. for 12 hours).
# [2] = Hygroscopicity by dynamic vapor sorption (VTI, kinetic experiment); type: physicochemical
# Experimental: Hygroscopicity was assessed using a dynamic vapor sorption technique in which an accurately weighed sample is subjected to progressively changing water vapor pressure while simultaneously recording the weight change. The experiment is conducted isothermally at 25° C.
# During the initial drying cycle (25° C., 1-3% RH), approximately 0.8% weight loss was observed, which is consistent with an anhydrous form. The sample gained 0.5% of its original weight when exposed to relative humidities from 0% to 90% at 25° C. (CQG≦2% wt. gain at 90% RH). […] FIG. 5 (VTI Moisture Sorption Data) reports results achieved in a step isotherm at a heating rate of 1° C./minute.
smiles,measurement,setting,value
CC(C)CNC(=O)[C@H]1C[C@@](F)(c2ccc(CN3CCCC3)c(F)c2)C1 [tosylate salt of the invention],solubility,"[1]; 0.1M phosphate buffered saline with 0.5 weight percent sodium taurocholate/phosphatidyl choline salts, final pH 7.4",7.0 mgA/mL
same,solubility thermodynamic at 25 h,"[1]; 0.1M phosphate buffered saline, final pH 6.3, temperature cycling 40/15/25° C.",5000 µg/mL
same,solubility thermodynamic at 25 h,"[1]; unbuffered water, final pH 4.7",8400 µg/mL
same,weight loss during initial drying cycle,"[2]; 25° C., 1-3% RH",approximately 0.8%
same,hygroscopicity (in words),"[2]; kinetic experiment (VTI), 25° C.",very slightly hygroscopic
same,weight gain (of original weight),[2]; relative humidities from 0% to 90% at 25° C.,0.5%
